Columns and labels:
Experiment in all cases: NCI60 antitumor screening
Assay type in all cases: cell-based, human
HL-60(TB) = system: HL-60(TB)
NCI-H322M = system: NCI-H322M
HT29 = system: HT29
SNB-19 = system: SNB-19
A498 = system: A498
A549/ATCC = system: A549/ATCC
SN12C = system: SN12C
SNB-75 = system: SNB-75
MALME-3M = system: MALME-3M
K-562 = system: K-562
M14 = system: M14
TK-10 = system: TK-10
MOLT-4 = system: MOLT-4
NCI-H460 = system: NCI-H460
ACHN = system: ACHN
MDA-MB-435 = system: MDA-MB-435
SF-539 = system: SF-539
SF-268 = system: SF-268
OVCAR-5 = system: OVCAR-5
[1] = Homo sapiens, NCI-H322M, five-dose
[2] = Homo sapiens, SF-539, five-dose

In the case of `N#Cc1c(-c2ccc(F)cc2)nc(SCc2ccc(F)cc2)nc1N1CCNCC1` [4f, 2-((4-Fluorobenzyl)thio)-4-(4-fluorophenyl)-6-(piperazin-1-yl) pyrimidine-5-carbonitrile], the GI50 (HL-60(TB); Homo sapiens, HL-60, five-dose) is reported as 7.66 µM, the CC50 (HL-60(TB); Homo sapiens, HL-60, five-dose, read-out: LC50 (the source's name)) is reported as 63.8 µM and the inhibition at 10 µM (HL-60(TB); Homo sapiens, 10 μM single dose, HL-60(TB) (leukaemia), read-out: growth inhibition percent (GI%)) is reported as greater than 100%. For the same compound, the TGI (HL-60(TB); five-dose) was 24.00 µM, the GI50 (NCI-H322M; [1]) was 14 µM and the LC50 (50% lethal concentration) (NCI-H322M; [1]) was 52.8 µM. The inhibition at 10 µM (NCI-H322M; Homo sapiens, 10 μM single dose, NCI-H322M (non-small cell lung cancer), read-out: growth inhibition percent (GI%)) was 64%, the TGI (NCI-H322M; five-dose) was 27.20 µM and the inhibition at 10 µM (HT29; Homo sapiens, HT-29, 10 μM single dose, HT29 (colon cancer), read-out: growth inhibition percent (GI%)) was greater than 100%. It also gave a GI50 (HT29; Homo sapiens, HT-29, five-dose) of 4.87 µM, a CC50 (HT29; Homo sapiens, HT-29, five-dose, read-out: LC50 (the source's name)) of 51.7 µM and a TGI (HT29; five-dose) of 17.30 µM. For the same compound, the GI50 (SNB-19; Homo sapiens, SNB-19, five-dose) was 14.9 µM, the CC50 (SNB-19; Homo sapiens, SNB-19, five-dose, read-out: LC50 (the source's name)) was 58.1 µM and the inhibition at 10 µM (SNB-19; Homo sapiens, 10 μM single dose, SNB-19 (CNS cancer), read-out: growth inhibition percent (GI%)) was 50.4%. For the same compound, the TGI (SNB-19; five-dose) was 29.40 µM, the GI50 (A498; Homo sapiens, A498, five-dose) was 15.3 µM and the LC50 (A498; Homo sapiens, A498, five-dose) was 58.2 µM. The inhibition at 10 µM (A498; Homo sapiens, 10 μM single dose, A498 (renal cancer), read-out: growth inhibition percent (GI%)) was less than 10%, the TGI (A498; five-dose) was 29.80 µM and the GI50 (A549/ATCC; Homo sapiens, A549, five-dose) was 11.5 µM. For the same compound, the LC50 (concentration killing 50% of cells) (A549/ATCC; Homo sapiens, A549, five-dose) was 54.2 µM, the inhibition at 10 µM (A549/ATCC; Homo sapiens, 10 μM single dose, A549/ATCC (non-small cell lung cancer), read-out: growth inhibition percent (GI%)) was greater than 100% and the TGI (A549/ATCC; five-dose) was 25.00 µM. The GI50 (SN12C; Homo sapiens, SN12C, five-dose) was 15.3 µM, the CC50 (SN12C; Homo sapiens, SN12C, five-dose, read-out: LC50 (the source's name)) was 55.2 µM and the inhibition at 10 µM (SN12C; Homo sapiens, 10 μM single dose, SN12C (renal cancer), read-out: growth inhibition percent (GI%)) was greater than 100%. It also gave a TGI (SN12C; five-dose) of 29.00 µM, a GI% (SNB-75; 10 μM one-dose) of 80.66% and an inhibition at 10 µM (SNB-75; Homo sapiens, 10 μM single dose, SNB-75 (CNS cancer), read-out: growth inhibition percent (GI%)) of 80.7%. It also gave a GI50 (MALME-3M; Homo sapiens, Malme-3M, five-dose) of 14.7 µM, a CC50 (MALME-3M; Homo sapiens, Malme-3M, five-dose, read-out: LC50 (the source's name)) of 54.8 µM and an inhibition at 10 µM (MALME-3M; Homo sapiens, 10 μM single dose, MALME-3M (melanoma), read-out: growth inhibition percent (GI%)) greater than 100%. For the same compound, the TGI (MALME-3M; five-dose) was 28.40 µM, the GI% (K-562; 10 μM one-dose) was 99.28% and the GI50 (K-562; Homo sapiens, K562, five-dose) was 3.76 µM. The CC50 (K-562; Homo sapiens, K562, five-dose, read-out: LC50 (the source's name)) was greater than 100 µM, the inhibition at 10 µM (K-562; Homo sapiens, 10 μM single dose, (leukaemia), read-out: growth inhibition percent (GI%)) was 99.3% and the TGI (K-562; five-dose) was 17.80 µM. It also gave a GI50 (M14; Homo sapiens, M14, five-dose) of 13.6 µM, a CC50 (M14; Homo sapiens, M14, five-dose, read-out: LC50 (the source's name)) of 52.9 µM and an inhibition at 10 µM (M14; Homo sapiens, 10 μM single dose, M14 (melanoma), read-out: growth inhibition percent (GI%)) greater than 100%. For the same compound, the TGI (M14; five-dose) was 26.80 µM, the GI50 (TK-10; Homo sapiens, TK-10, five-dose) was 15 µM and the LC50 (TK-10; Homo sapiens, TK-10, five-dose) was 58.8 µM. It also gave an inhibition at 10 µM (TK-10; Homo sapiens, 10 μM single dose, TK-10 (renal cancer), read-out: growth inhibition percent (GI%)) greater than 100%, a TGI (TK-10; five-dose) of 29.70 µM and a GI% (MOLT-4; 10 μM one-dose) of 92.21%. For the same compound, the GI50 (MOLT-4; Homo sapiens, MOLT-4, five-dose) was 10.5 µM, the CC50 (MOLT-4; Homo sapiens, MOLT-4, five-dose, read-out: LC50 (the source's name)) was 64.4 µM and the inhibition at 10 µM (MOLT-4; Homo sapiens, 10 μM single dose, MOLT-4 (leukaemia), read-out: growth inhibition percent (GI%)) was 92.2%. For the same compound, the TGI (MOLT-4; five-dose) was 26.00 µM, the GI50 (NCI-H460; Homo sapiens, NCI-H460, five-dose) was 14.3 µM and the CC50 (NCI-H460; Homo sapiens, NCI-H460, five-dose, read-out: LC50 (the source's name)) was 60.4 µM. It also gave an inhibition at 10 µM (NCI-H460; Homo sapiens, 10 μM single dose, NCI-H460 (non-small cell lung cancer), read-out: growth inhibition percent (GI%)) greater than 100%, a TGI (NCI-H460; five-dose) of 29.40 µM and a GI50 (ACHN; Homo sapiens, ACHN, five-dose) of 15 µM. For the same compound, the LC50 (ACHN; Homo sapiens, ACHN, five-dose) was 54.5 µM, the inhibition at 10 µM (ACHN; Homo sapiens, 10 μM single dose, ACHN (renal cancer), read-out: growth inhibition percent (GI%)) was greater than 100% and the TGI (ACHN; five-dose) was 28.60 µM. It also gave a GI50 (MDA-MB-435; Homo sapiens, MDA-MB-435, five-dose) of 16.8 µM, a CC50 (MDA-MB-435; Homo sapiens, MDA-MB-435, five-dose, read-out: LC50 (the source's name)) of 58.4 µM and an inhibition at 10 µM (MDA-MB-435; Homo sapiens, 10 μM single dose, MDA-MB-435 (melanoma), read-out: growth inhibition percent (GI%)) greater than 100%. It also gave a TGI (MDA-MB-435; five-dose) of 31.30 µM, a GI50 (SF-539; [2]) of 15.6 µM and an LC50 (SF-539; [2]) of 54.1 µM. For the same compound, the inhibition at 10 µM (SF-539; Homo sapiens, 10 μM single dose, SF-539 (CNS cancer), read-out: growth inhibition percent (GI%)) was greater than 100%, the TGI (SF-539; five-dose) was 29.00 µM and the GI50 (SF-268; Homo sapiens, SF-268, five-dose) was 14.1 µM. The CC50 (SF-268; Homo sapiens, SF-268, five-dose, read-out: LC50 (the source's name)) was 67.5 µM, the inhibition at 10 µM (SF-268; Homo sapiens, 10 μM single dose, SF-268 (CNS cancer), read-out: growth inhibition percent (GI%)) was 58.5% and the TGI (SF-268; five-dose) was 30.90 µM. It also gave a GI% (OVCAR-5; 10 μM one-dose) of 99.16%, a GI50 (OVCAR-5; Homo sapiens, OVCAR-5, five-dose) of 14.5 µM and a CC50 (OVCAR-5; Homo sapiens, OVCAR-5, five-dose, read-out: LC50 (the source's name)) of 53.9 µM.

From PMC10620772, “Design, synthesis, and biological evaluation of new pyrimidine-5-carbonitrile derivatives as novel anti-cancer, dual EGFR^WT/COX-2 inhibitors with docking studies” (RSC Advances, 2023)
